Experiment [1] concerns WT E. coli. Put plainly: Alkylating-agent sensitivity assay (colony forming units). Particulars: MMS 20 mM, 30 minutes at 37° C., FIG. 1.
Experiment [2] relates to alkB mutants. Particulars: MMS 20 mM, alkB mutants compared with WT, FIG. 1.

On to `COS(C)(=O)=O` [MMS, Methyl methanesulfonate], for which, in experiment [1], the “effect on bacterial growth (CFU)” value is reported as “minimal effect on bacterial growth”. Further, in experiment [2], the “Sensitivity to MMS (CFU)” value is listed as “significantly increased”.

The values above are taken from US12226426B2, “Combination therapy” (IMPERIAL COLLEGE INNOVATIONS LIMITED, priority 2018, dated 2025).
